Our source for the activity and IC50 values is patent publication US20260132132A1, “3A,4,5,6-TETRAHYDRO-1 H-PYRAZOLO[3,4-C]PYRIDIN-7(7AH)-ONE DERIVATIVES AS FACTOR XIIA INHIBITORS” (KALVISTA PHARMACEUTICALS LIMITED, priority 2022, published 2026).

A word on the IC50: it is the concentration needed to halve the response being measured.

What all share (type): biochemical
For assay [1], the target named is Thrombin (Homo sapiens, UniProt P00734). Nature of the assay: Related protease inhibition: Thrombin, fluorogenic substrate. Particulars: fluorogenic substrate at Km, 25° C., H1-H3 = % activity at 40 μM; for activity at 40 µM: read-out: IC50 (human thrombin) nM. Here is the method:
(§1) Human serine protease enzyme Plasma Kallikrein, KLK1, FXa, Plasmin, Thrombin and Trypsin were assayed for enzymatic activity using an appropriate fluorogenic substrate at Km concentration, FXIa at fixed substrate concentration of 100 μM and various concentrations of the test compound.

Assay [2] addresses FXa (Homo sapiens, UniProt P00742). Put plainly: Related protease inhibition: FXa, fluorogenic substrate. Particulars: fluorogenic substrate at Km, 25° C., H1-H3 = % activity at 40 μM; for activity at 40 µM: read-out: IC50 (human FXa) nM. On the procedure: as §1
The target of assay [3] is T1, Human Factor XIIa (hFXIIa) (Homo sapiens, UniProt P00748).
T1 construct: purchased Enzyme Research Laboratories
T1 sequence (P00748 373-615 limits assumed): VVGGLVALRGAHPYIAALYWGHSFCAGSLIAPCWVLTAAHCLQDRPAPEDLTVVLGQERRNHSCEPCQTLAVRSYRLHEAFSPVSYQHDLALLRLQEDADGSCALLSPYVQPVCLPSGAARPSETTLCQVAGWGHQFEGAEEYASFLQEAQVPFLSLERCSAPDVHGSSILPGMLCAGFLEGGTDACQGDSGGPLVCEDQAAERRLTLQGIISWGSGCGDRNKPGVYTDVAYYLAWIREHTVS
T1 sequence (P00748 20-372 partner limits assumed): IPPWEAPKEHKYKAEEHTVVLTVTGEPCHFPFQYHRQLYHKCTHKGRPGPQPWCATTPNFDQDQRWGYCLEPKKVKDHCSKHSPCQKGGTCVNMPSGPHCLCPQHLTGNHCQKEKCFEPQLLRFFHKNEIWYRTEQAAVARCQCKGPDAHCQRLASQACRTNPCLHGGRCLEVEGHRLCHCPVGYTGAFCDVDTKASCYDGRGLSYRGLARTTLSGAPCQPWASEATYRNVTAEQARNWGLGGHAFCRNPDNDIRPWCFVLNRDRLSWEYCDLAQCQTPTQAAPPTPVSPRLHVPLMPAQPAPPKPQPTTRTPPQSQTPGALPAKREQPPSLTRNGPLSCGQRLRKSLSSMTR
Put plainly: Determination of Human Factor XIIa (hFXIIa) inhibition, fluorogenic substrate IC50 assay. As to conditions: fluorogenic substrate H-DPro-Phe-Arg-AFC at Km, 25° C., read-out: Human FXIIa IC50. On the procedure: Determination of Human Factor XIIa (hFXIIa) inhibition
The Km for the cleavage of the substrate by hFXIIa was determined by standard transformation of the Michaelis-Menten equation, with subsequent inhibition assays performed at substrate Km concentration.

FXa, sequence (P00742 235-488 limits assumed): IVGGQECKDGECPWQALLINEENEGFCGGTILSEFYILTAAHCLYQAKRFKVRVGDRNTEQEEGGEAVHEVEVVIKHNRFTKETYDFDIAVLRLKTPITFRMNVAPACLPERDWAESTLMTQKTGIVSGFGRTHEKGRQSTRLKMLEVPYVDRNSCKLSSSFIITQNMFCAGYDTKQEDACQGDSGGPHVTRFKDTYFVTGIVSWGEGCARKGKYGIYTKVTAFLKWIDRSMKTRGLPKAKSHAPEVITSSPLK
FXa, sequence (P00742 41-179 partner limits assumed): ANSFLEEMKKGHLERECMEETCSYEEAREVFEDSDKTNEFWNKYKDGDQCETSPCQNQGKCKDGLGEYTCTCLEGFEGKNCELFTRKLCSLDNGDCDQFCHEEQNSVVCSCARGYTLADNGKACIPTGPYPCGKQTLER

For the compound `CN1CCc2ccc(N3CCc4c(C(=O)NCCCO)nn(-c5cccc(Cl)c5)c4C3=O)cc2C1=O` [Example 1417, 1-(3-chlorophenyl)-N-(3-hydroxypropyl)-6-(2-methyl-1-oxo-1,2,3,4-tetrahydroisoquinolin-7-yl)-7-oxo-4,5,6,7-tetrahydro-1H-pyrazolo[3,4-c]pyridine-3-carboxamide], the activity at 40 µM in assay [1] and in assay [2] was 20 to 80% in each case. Besides, in assay [3], the IC50 was 0.3 to 1 µM.

`CCNC(=O)c1nn(-c2cccc(Cl)c2)c2c1CCN(c1cc3c(cc1F)OCCN(C)C3=O)C2=O` [Example 1435, 1-(3-chlorophenyl)-N-ethyl-6-(8-fluoro-4-methyl-5-oxo-2,3,4,5-tetrahydrobenzo[f][1,4]oxazepin-7-yl)-7-oxo-4,5,6,7-tetrahydro-1H-pyrazolo[3,4-c]pyridine-3-carboxamide]: the activity at 40 µM in assay [1] and in assay [2] was over 80% in each case. For the same compound, the 50% inhibitory concentration (IC50) in assay [3] lay in the range of 0.1 to 0.3 µM.

For the compound `Cc1ccc(CNC(=O)c2nn(-c3cccc(Cl)c3)c3c2CCN(c2ccc4c(c2)C(=O)N(CCO)CC4)C3=O)cn1` [Example 1414, 1-(3-chlorophenyl)-6-(2-(2-hydroxyethyl)-1-oxo-1,2,3,4-tetrahydroisoquinolin-7-yl)-N-((6-methylpyridin-3-yl)methyl)-7-oxo-4,5,6,7-tetrahydro-1H-pyrazolo[3,4-c]pyridine-3-carboxamide], the activity at 40 µM in assay [1] and in assay [2] was 20 to 80% throughout. In assay [3], the IC50 was 0.1 to 0.3 µM.

As to `CN1CCc2ccc(N3CCc4c(C(=O)N[C@H](CO)C5CC5)nn(-c5cccc(Cl)c5)c4C3=O)cc2C1=O` [Example 1406, (S)-1-(3-chlorophenyl)-N-(1-cyclopropyl-2-hydroxyethyl)-6-(2-methyl-1-oxo-1,2,3,4-tetrahydroisoquinolin-7-yl)-7-oxo-4,5,6,7-tetrahydro-1H-pyrazolo[3,4-c]pyridine-3-carboxamide], the results for the activity at 40 µM in assay [1] and in assay [2] were 20 to 80% and over 80%, respectively. In assay [3], the half-maximal inhibitory concentration (IC50) lay within 0.1 to 0.3 µM.

With `CN1CCc2ccc(N3CCc4c(C(=O)N[C@H]5COC[C@@H]5O)nn(-c5cccc(Cl)c5)c4C3=O)cc2C1=O` [Example 1415, 1-(3-chlorophenyl)-N-((3S,4R)-4-hydroxytetrahydrofuran-3-yl)-6-(2-methyl-1-oxo-1,2,3,4-tetrahydroisoquinolin-7-yl)-7-oxo-4,5,6,7-tetrahydro-1H-pyrazolo[3,4-c]pyridine-3-carboxamide], the activity at 40 µM in assay [1] and in assay [2] was over 80% each time. The IC50 in assay [3] is 0.1 to 0.3 µM.

As to `COCc1nn(-c2cc(Cl)cc(CN)c2)c2c1CCN(c1ccc3c(c1)C(=O)N(C)CC3)C2=O` [Example 2041, 7-(1-(3-(aminomethyl)-5-chlorophenyl)-3-(methoxymethyl)-7-oxo-1,4,5,7-tetrahydro-6H-pyrazolo[3,4-c]pyridin-6-yl)-2-methyl-3,4-dihydroisoquinolin-1(2H)-one], the activity at 40 µM in assay [1] and in assay [2] was 20 to 80% each time. Besides, the IC50 in assay [3] was in the range of 0.01 to 0.1 µM.

With `CCNC(=O)c1nn(-c2cccc(Cl)c2)c2c1CCN(c1ccc3c(c1)C(=O)N(C)C1CC3C1)C2=O` [Example 1434, 1-(3-chlorophenyl)-N-ethyl-6-(2-methyl-1-oxo-2,3,4,5-tetrahydro-1H-3,5-methanobenzo[c]azepin-8-yl)-7-oxo-4,5,6,7-tetrahydro-1H-pyrazolo[3,4-c]pyridine-3-carboxamide], the activity at 40 µM in assay [1] and in assay [2] was 20 to 80% in each case. In assay [3], the IC50 was in the range of 1 to 3 µM.

For `CCNC(=O)c1nn(-c2cccc(Cl)c2)c2c1CCN(c1cccc(N3CC4(COC4)CC3=O)c1)C2=O` [Example 1428, 1-(3-chlorophenyl)-N-ethyl-7-oxo-6-(3-(7-oxo-2-oxa-6-azaspiro[3.4]octan-6-yl)phenyl)-4,5,6,7-tetrahydro-1H-pyrazolo[3,4-c]pyridine-3-carboxamide], the activity at 40 µM in assay [1] and in assay [2] was over 80% in each case. Further, the IC50 in assay [3] fell in the range of 10 to 40 µM.

Consider `CCNC(=O)c1nn(-c2cc(C)cc(Cl)c2)c2c1CCN(c1ccc3c(c1)C(=O)N(C)CC3)C2=O` [Example 2051, 1-(3-chloro-5-methylphenyl)-N-ethyl-6-(2-methyl-1-oxo-1,2,3,4-tetrahydroisoquinolin-7-yl)-7-oxo-4,5,6,7-tetrahydro-1H-pyrazolo[3,4-c]pyridine-3-carboxamide], for which the activity at 40 µM is over 80% in assay [1] and 20 to 80% in assay [2]. In addition, in assay [3], the IC50 is 0.3 to 1 µM.

For the compound `CCNC(=O)c1nn(-c2cccc(Cl)c2)c2c1CCN(c1cccc(N3CCN(C)CC3)c1)C2=O` [Example 1423, 1-(3-Chlorophenyl)-N-ethyl-6-(3-(4-methylpiperazin-1-yl)phenyl)-7-oxo-4,5,6,7-tetrahydro-1H-pyrazolo[3,4-c]pyridine-3-carboxamide], the activity at 40 µM in assay [1] and in assay [2] was 20 to 80% in each case. In addition, the IC50 in assay [3] lay within 1 to 3 µM.

In the case of `Cc1cc(CNC(=O)c2nn(-c3cc(Cl)cc(CN)c3)c3c2CCN(c2ccc4c(c2)C(=O)N(C)CC4)C3=O)nn1C` [Example 2017, 1-(3-(Aminomethyl)-5-chlorophenyl)-N-((1,5-dimethyl-1H-pyrazol-3-yl)methyl)-6-(2-methyl-1-oxo-1,2,3,4-tetrahydroisoquinolin-7-yl)-7-oxo-4,5,6,7-tetrahydro-1H-pyrazolo[3,4-c]pyridine-3-carboxamide], the half-maximal inhibitory concentration (IC50) in assay [1] was 1 to 3 µM; in assay [2], 10 to 40 µM; in assay [3], 0.001 to 0.01 µM.

With `CCNC(=O)c1nn(-c2cccc(Cl)c2)c2c1CCN(c1cccc(N3CCC4(CC4)C3)c1)C2=O` [Example 1430, 6-(3-(5-azaspiro[2.4]heptan-5-yl)phenyl)-1-(3-chlorophenyl)-N-ethyl-7-oxo-4,5,6,7-tetrahydro-1H-pyrazolo[3,4-c]pyridine-3-carboxamide], the activity at 40 µM in assay [1] and in assay [2] was over 80% throughout. The IC50 in assay [3] was in the range of 3 to 10 µM.

For `CCNC(=O)c1nn(-c2cccc(Cl)c2)c2c1CCN(c1ccc(OC)c(CN3CCCCC3)c1)C2=O` [Example 1419, 1-(3-chlorophenyl)-N-ethyl-6-(4-methoxy-3-(piperidin-1-ylmethyl)phenyl)-7-oxo-4,5,6,7-tetrahydro-1H-pyrazolo[3,4-c]pyridine-3-carboxamide], the activity at 40 µM in assay [1] and in assay [2] was 20 to 80% throughout. Further, the half-inhibitory concentration (IC50) in assay [3] fell in the range of 1 to 3 µM.

For the compound `CN1CCc2ccc(N3CCc4c(C(=O)NC5COCC56CC6)nn(-c5cccc(Cl)c5)c4C3=O)cc2C1=O` (stereo not drawn) [Example 1438, 1-(3-chlorophenyl)-6-(2-methyl-1-oxo-1,2,3,4-tetrahydroisoquinolin-7-yl)-7-oxo-N-(5-oxaspiro[2.4]heptan-7-yl)-4,5,6,7-tetrahydro-1H-pyrazolo[3,4-c]pyridine-3-carboxamide], the activity at 40 µM in assay [1] and in assay [2] was over 80% in each case. In addition, the IC50 in assay [3] lay within 0.1 to 0.3 µM.

Regarding `CN1CCOc2ccc(N3CCc4c(C(=O)NCC5CC5)nn(-c5cccc(Cl)c5F)c4C3=O)cc2C1=O` [Example 2046, 1-(3-chloro-2-fluorophenyl)-N-(cyclopropylmethyl)-6-(4-methyl-5-oxo-2,3,4,5-tetrahydrobenzo[f][1,4]oxazepin-7-yl)-7-oxo-4,5,6,7-tetrahydro-1H-pyrazolo[3,4-c]pyridine-3-carboxamide], the activity at 40 µM in assay [1] and in assay [2] was over 80% in each case. The IC50 in assay [3] fell in the range of 0.01 to 0.1 µM.
